In paper PMC7351026, “Serum Half-Lives for Short- and Long-Chain Perfluoroalkyl Acids after Ceasing Exposure from Drinking Water Contaminated by Firefighting Foam” (Environmental Health Perspectives, 2020):

Key:
[1] = PFAS levels in urine samples of airport employees, specific-gravity adjusted (LC/MS/MS); assay type: in vivo, human
Procedure: Only one employee provided a single urine sample. […] All employees provided written informed consent.
The samples were thawed 1–2 h, then mixed by vortex shaker and manual turning. […] For the urine samples, 50μL urine was mixed with 25μL of methanol and 25μL of a 50% acetonitrile solution containing isotopically labeled internal standards (see Table S1). Then samples were shaken vigorously for 30 min and centrifuged at 3,000×g for 10 min at room temperature.
Aliquots of 20μL of the sample were analyzed using LC/MS/MS. […] The analysis was performed in negative ion mode. The ion source temperature was at 350°C.
(§1) Urinary PFAS concentrations were specific-gravity adjusted. The ratio of urine and serum concentration for each PFAS (urine/serum ratio) at each sampling was calculated based on PFAS concentrations in paired serum and urine samples from 17 employees. Then the personal average urine/serum ratio was calculated using the mean value of repeated samplings for each employee.

[2] = Population average serum elimination rate and half-life (linear mixed model, one compartment, first-order); conditions: for Constant elimination rate (95% CI) / Half-life (95% CI) / half-life: population average; for half-life: human, serum, oral, Half-life (95% CI)
In short: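 Log-transformed serum PFAS fitted with a linear mixed model (random intercept only; age and sex as covariates), assuming one-compartment first-order elimination. Time counted in days from clean-water supply to first sampling. k is the negative average slope; half-life = ln2/k; sensitivity run after subtracting reference-population median background.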

[3] = Individual serum elimination rate and half-life (linear regression per employee); conditions: individual estimate; for half-life: human, serum, oral, HL (half-life);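 on HL (half-life): half-life in years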
In short: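 One-compartment, first-order model: for each employee and PFAS, the slope β of log serum concentration versus elapsed days (from clean water supply, over five samplings) gave k = −β and half-life = ln2/k. A positive slope left the half-life undetermined.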

Serum/water ratio = assay type: in vivo, human; conditions: median serum level of first samples (26 employees) divided by airport drinking-water level
Procedure: The ratio of serum and water concentration for each PFAS (serum/water ratio) was calculated based on median serum level in the first serum sample obtained from all 26 airport employees divided by the drinking-water concentration. This ratio is an indicator of PFAS accumulation in body.

[4] = Urine/serum ratio in paired samples; assay type: in vivo, human; conditions: mean of four paired samplings per subject, 17 airport employees
Procedure: as §1

[5] = Background serum PFAS levels in reference population from Karlshamn; assay type: in vivo, human; conditions: reference group from Karlshamn without PFAS contamination in drinking water, N=58, sampled 2016
From the text: For comparison with Swedish general background PFAS serum levels, we referred to the PFAS levels observed in a reference population from Karlshamn, a municipality in southern Sweden without PFAS contamination in the municipal drinking water. In 2016, 226 individuals were sampled. Fifty-nine individuals were randomly selected for analyzing other short-chain PFAS than the legacy ones, using the same modified method as for the airport employees. Fifty-eight individuals within the same age range as the airport employees (i.e., >22 years of age ) were included in the comparison. For a detailed description of this population see Li et al. ([2018]).

[6] = general Swedish population (Ronneby, 106 Swedes) with high exposure through drinking water, 2 y follow-up from 6 months after clean water; ref Li et al. 2018; cited from earlier work
[7] = 2nd sampling (October 2018), count 17
[8] = 3rd sampling (November, 2018), count 16
[9] = 4th sampling (December 2018), count 14
[10] = 5th sampling (January 2019), count 12
[11] = model with original serum levels, age and sex as covariates
[12] = model with serum levels after subtraction of background exposure (sensitivity analysis)

O=S(=O)(O)C(F)(F)C(F)(F)C(F)(F)C(F)(F)C(F)(F)C(F)(F)C(F)(F)C(F)(F)F [L-PFOS, linear perfluorooctane sulfonic acid]
Specific gravity adjusted urinary level, 25 percentile [1, 7]: < LOD
Specific gravity adjusted urinary level, 75 percentile [1, 7]: 0.01 ng/mL
Specific gravity adjusted urinary level, Max [1, 7]: 0.08 ng/mL
Specific gravity adjusted urinary level, Median [1, 7]: < LOD
Specific gravity adjusted urinary level, Min [1, 7]: < LOD
Specific gravity adjusted urinary level, 25 percentile [1, 8]: < LOD
Specific gravity adjusted urinary level, 75 percentile [1, 8]: 0.02 ng/mL
Specific gravity adjusted urinary level, Max [1, 8]: 0.03 ng/mL
Specific gravity adjusted urinary level, Median [1, 8]: 0.01 ng/mL
Specific gravity adjusted urinary level, Min [1, 8]: < LOD
Specific gravity adjusted urinary level, 25 percentile [1, 9]: < LOD
Specific gravity adjusted urinary level, 75 percentile [1, 9]: 0.02 ng/mL
Specific gravity adjusted urinary level, Max [1, 9]: 0.05 ng/mL
Specific gravity adjusted urinary level, Median [1, 9]: < LOD
Specific gravity adjusted urinary level, Min [1, 9]: < LOD
Specific gravity adjusted urinary level, 25 percentile [1, 10]: < LOD
Specific gravity adjusted urinary level, 75 percentile [1, 10]: 0.01 ng/mL
Specific gravity adjusted urinary level, Max [1, 10]: 0.04 ng/mL
Specific gravity adjusted urinary level, Median [1, 10]: < LOD
Specific gravity adjusted urinary level, Min [1, 10]: < LOD
Constant elimination rate (95% CI) [2, 11]: 0.24 (0.07, 0.4) yearly
Half-life (95% CI) [2, 11]: 2.91 (1.71, 9.63) year
Constant elimination rate (95% CI) [2, 12]: 0.41 (0.11, 0.71) yearly
Half-life (95% CI) [2, 12]: 1.69 (0.98, 6.04) year
Reduction of half-life estimation after subtraction of background levels ([2]; sensitivity analysis vs model with original serum levels): 42%
Elimination rate ([3]; subject 1, 5 samples): −0.2 yearly
Elimination rate ([3]; subject 2, 5 samples): 0.4 yearly
HL (half-life) ([3]; subject 2, 5 samples): 1.7 year
Elimination rate ([3]; subject 3, 5 samples): 0.5 yearly
HL (half-life) ([3]; subject 3, 5 samples): 1.3 year
Elimination rate ([3]; subject 4, 5 samples): −0.3 yearly
Elimination rate ([3]; subject 5, 5 samples): 0.6 yearly
HL (half-life) ([3]; subject 5, 5 samples): 1.2 year
Elimination rate ([3]; subject 6, 4 samples): 0.04 yearly
HL (half-life) ([3]; subject 6, 4 samples): 17 year
Elimination rate ([3]; subject 7, 5 samples): 0.006 yearly
Elimination rate ([3]; subject 8, 5 samples): −0.4 yearly
Elimination rate ([3]; subject 9, 5 samples): 0.4 yearly
HL (half-life) ([3]; subject 9, 5 samples): 1.8 year
Elimination rate ([3]; subject 10, 5 samples): −0.2 yearly
Elimination rate ([3]; subject 11, 5 samples): 0.1 yearly
HL (half-life) ([3]; subject 11, 5 samples): 4.7 year
Elimination rate ([3]; subject 12, 5 samples): 0.8 yearly
HL (half-life) ([3]; subject 12, 5 samples): 0.9 year
Elimination rate ([3]; subject 13, 5 samples): 0.2 yearly
HL (half-life) ([3]; subject 13, 5 samples): 3.7 year
Elimination rate ([3]; subject 14, 4 samples): 0.3 yearly
HL (half-life) ([3]; subject 14, 4 samples): 2.0 year
Elimination rate ([3]; subject 15, 5 samples): 0.5 yearly
HL (half-life) ([3]; subject 15, 5 samples): 1.3 year
Elimination rate ([3]; subject 16, 5 samples): 0.6 yearly
HL (half-life) ([3]; subject 16, 5 samples): 1.2 year
Elimination rate ([3]; subject 17, 5 samples): 0.3 yearly
HL (half-life) ([3]; subject 17, 5 samples): 2.1 year
Serum/water ratio (Serum/water ratio): 153
Personal average urine/serum ratio, median (range) [4]: 0.00092 (0.000035–0.0056)
PFAS serum level, median (range) [5]: 3.0 (0.30–9.8) ng/mL
Average half-life [6]: 3.4 y

O=S(=O)(O)C(F)(F)C(F)(F)C(F)(F)C(F)(F)C(F)(F)C(F)(F)F [PFHxS, perfluorohexane sulfonic acid]
Specific gravity adjusted urinary level, 25 percentile [1, 7]: 0.06 ng/mL
Specific gravity adjusted urinary level, 75 percentile [1, 7]: 0.13 ng/mL
Specific gravity adjusted urinary level, Max [1, 7]: 0.28 ng/mL
Specific gravity adjusted urinary level, Median [1, 7]: 0.09 ng/mL
Specific gravity adjusted urinary level, Min [1, 7]: 0.03 ng/mL
Specific gravity adjusted urinary level, 25 percentile [1, 8]: 0.05 ng/mL
Specific gravity adjusted urinary level, 75 percentile [1, 8]: 0.13 ng/mL
Specific gravity adjusted urinary level, Max [1, 8]: 0.26 ng/mL
Specific gravity adjusted urinary level, Median [1, 8]: 0.07 ng/mL
Specific gravity adjusted urinary level, Min [1, 8]: 0.03 ng/mL
Specific gravity adjusted urinary level, 25 percentile [1, 9]: 0.05 ng/mL
Specific gravity adjusted urinary level, 75 percentile [1, 9]: 0.17 ng/mL
Specific gravity adjusted urinary level, Max [1, 9]: 0.73 ng/mL
Specific gravity adjusted urinary level, Median [1, 9]: 0.12 ng/mL
Specific gravity adjusted urinary level, Min [1, 9]: 0.04 ng/mL
Specific gravity adjusted urinary level, 25 percentile [1, 10]: 0.07 ng/mL
Specific gravity adjusted urinary level, 75 percentile [1, 10]: 0.11 ng/mL
Specific gravity adjusted urinary level, Max [1, 10]: 0.31 ng/mL
Specific gravity adjusted urinary level, Median [1, 10]: 0.08 ng/mL
Specific gravity adjusted urinary level, Min [1, 10]: 0.06 ng/mL
Specific gravity adjusted urine level, median (range) ([1]; second to fifth samplings, 17 airport employees): 0.092 (0.025–0.73) ng/mL
half-life [2, 11]: 1040 days
half-life [2, 12]: 1040 days
Constant elimination rate (95% CI) [2, 11]: 0.24 (0.16, 0.33) yearly
Constant elimination rate (95% CI) [2, 12]: 0.24 (0.16, 0.33) yearly
half-life ([3]; subject 1, 5 samples): 1280 days
half-life ([3]; subject 2, 5 samples): 730 days
half-life ([3]; subject 3, 5 samples): 548 days
half-life ([3]; subject 4, 5 samples): 3510 days
half-life ([3]; subject 5, 5 samples): 1720 days
half-life ([3]; subject 7, 5 samples): 840 days
half-life ([3]; subject 10, 5 samples): 694 days
half-life ([3]; subject 11, 5 samples): 1100 days
half-life ([3]; subject 12, 5 samples): 584 days
half-life ([3]; subject 13, 5 samples): 511 days
half-life ([3]; subject 14, 4 samples): 438 days
half-life ([3]; subject 15, 5 samples): 804 days
half-life ([3]; subject 16, 5 samples): 6940 days
half-life ([3]; subject 17, 5 samples): 584 days
Elimination rate ([3]; subject 1, 5 samples): 0.2 yearly
Elimination rate ([3]; subject 2, 5 samples): 0.3 yearly
Elimination rate ([3]; subject 3, 5 samples): 0.5 yearly
Elimination rate ([3]; subject 4, 5 samples): 0.1 yearly
Elimination rate ([3]; subject 5, 5 samples): 0.1 yearly
Elimination rate ([3]; subject 6, 4 samples): −0.1 yearly
Elimination rate ([3]; subject 7, 5 samples): 0.3 yearly
Elimination rate ([3]; subject 8, 5 samples): −0.01 yearly
Elimination rate ([3]; subject 9, 5 samples): −0.04 yearly
Elimination rate ([3]; subject 10, 5 samples): 0.4 yearly
Elimination rate ([3]; subject 11, 5 samples): 0.2 yearly
Elimination rate ([3]; subject 12, 5 samples): 0.4 yearly
Elimination rate ([3]; subject 13, 5 samples): 0.5 yearly
Elimination rate ([3]; subject 14, 4 samples): 0.6 yearly
Elimination rate ([3]; subject 15, 5 samples): 0.3 yearly
Elimination rate ([3]; subject 16, 5 samples): 0.04 yearly
Elimination rate ([3]; subject 17, 5 samples): 0.4 yearly
Serum/water ratio (Serum/water ratio): 107
Personal average urine/serum ratio, median (range) [4]: 0.00093 (0.0006–0.0018)
PFAS serum level, median (range) [5]: 0.59 ( <LOD –1.2) ng/mL
Average half-life [6]: 5.3 y
